Laboratory results from patent EP0486595B1, “Use of a coleus extract for skin pigmentation” (LVMH RECHERCHE, priority 1989, dated 1991).

What was measured:
mélanocytes murins [1] = assay: Melanin formation (melanogenesis stimulation) in cultured melanocytes, optical density at 475 nm; assay type: cell-based; conditions: for Mélanine >g pour 10⁶ mélanocytes / A: concentration 10 >g/ml; for A: relative to β-MSH 2.10⁻⁸ M
From the text: (§1) Des mélanocytes murins sont cultivés sur un milieu approprié de manière classique.
Au jour J = 0, le produit à tester est introduit dans le milieu de culture. […]
(§2) On procède à la lecture de la densité optique sur un spectrophotomètre à 475 nm, ce qui permet d'évaluer la quantité de mélanine formée par comparaison à la densité optique d'une solution de mélanine de concentration connue.
(§3) On procède également au comptage des cellules, et on calcule le taux de mélanine formée par cellule, par rapport à une culture témoin, sans addition de produit à tester.
(§4) L'extrait Coleus 5B, selon l'exemple 5b est testé en comparaison avec de la forskoline seule, utilisée à concentration équivalente, et avec un témoin positif consistant en 10⁻⁸ mole de β-MSH. Ainsi, on introduit au jour J=0 dans le milieu de culture de la forskoline à la concentration de 0,1 >g/ml.
(§5) Dans une autre culture, on introduit l'extrait de Coleus à une concentration déterminée de façon que le taux en forskoline soit également d'environ 0,1 >g/ml.
(§6) L'activité A de la stimulation de la mélanogénèse par les produits selon l'invention est calculée par la formule suivante : [formula] dans laquelle les grandeurs q représentent les quantités de mélanine formée qp = culture recevant le produit à tester q₊ = culture recevant la βMSH qo = culture témoin ne recevant aucun produit.
(§7) Par ailleurs, on a testé dans des conditions analogues les extraits de Coleus 5A et 5C respectivement obtenus par extraction par un mélange éthanol-eau 80:20 et par le dichlorométhane. On notera toutefois qu'il a été pris comme témoin positif une culture recevant de la β-MSH à la concentration de 2.10⁻⁸M.
(§8) On opère comme à l'exemple 6. La combinaison IBMX plus extrait de Coleus est testée en comparaison avec l'IBMX et l'extrait de Coleus seul, de même qu'avec la β-MSH à la concentration de 2.10⁻⁸ M prise comme témoin positif.

mélanocytes murins [2] = assay: as above; assay type: cell-based; conditions: for Activité A en % / A: 100 by definition; for Mélanine >g pour 10⁶ mélanocytes / A: β-MSH 2.10⁻⁸ M
From the text: as §1
Au jour J = 0, le produit à tester est introduit dans le milieu de culture.
Au jour J = 5, on prélève les cellules que l'on isole par centrifugation et on récupère le culot cellulaire que l'on dissout dans de la soude 0,5 N.
as §2, §3, §4, §5, §6, §7, §8

In the case of C=C[C@@]1(C)CC(=O)[C@]2(O)[C@@]3(C)[C@@H](O)CCC(C)(C)[C@@H]3[C@H](O)[C@H](OC(C)=O)[C@@]2(C)O1 [Forskoline, forskoline], the “Mélanine formée en >g pour 10⁶ cellules” value (mélanocytes murins [1]; J = 5, forskoline 0,1 >g/ml, extract dosed to a forskoline level of about 0,1 >g/ml) is reported as 92 ± 3 >g pour 10⁶ cellules and the “Activité A en %” value (mélanocytes murins [1]; J = 5, forskoline level about 0,1 >g/ml, relative to β-MSH 10⁻⁸ mole = 100) is reported as 151%.
With CC(C)Cn1c(=O)n(C)c(=O)c2[nH]cnc21 [IBMX, 3-isobutyl-1-méthylxanthine] the “Mélanine >g pour 10⁶ mélanocytes” value (mélanocytes murins [1]; J = 4) was 64 +/-0 >g pour 10⁶ mélanocytes, the A (mélanocytes murins [1]; J = 4) was “+ 39” and the “Mélanine >g pour 10⁶ mélanocytes” value (mélanocytes murins [1]; J = 5) was 103 +/-2 >g pour 10⁶ mélanocytes. The A (mélanocytes murins [1]; J = 5) was “+ 35”.
β-MSH was tested, and the “Activité A en %” value (mélanocytes murins [2]; 2.10⁻⁸M) was 100%, the “Mélanine formée en >g pour 10⁶ cellules” value (mélanocytes murins [2]; 2.10⁻⁸M, Table II positive control) was 179 ± 4 >g pour 10⁶ cellules and the “Mélanine >g pour 10⁶ mélanocytes” value (mélanocytes murins [2]; J = 4) was 119 +/-7 >g pour 10⁶ mélanocytes. For the same compound, the A (mélanocytes murins [2]; J = 4) was “+ 100”, the “Activité A en %” value (mélanocytes murins [2]; J = 5, 10⁻⁸ mole de β-MSH) was 100% and the “Mélanine formée en >g pour 10⁶ cellules” value (mélanocytes murins [2]; J = 5, positive control 10⁻⁸ mole de β-MSH) was 70 >g pour 10⁶ cellules. For the same compound, the “Mélanine >g pour 10⁶ mélanocytes” value (mélanocytes murins [2]; J = 5) was 200 +/-2 >g pour 10⁶ mélanocytes and the A (mélanocytes murins [2]; J = 5) was “+ 100”.
